In patent publication US20260297060A1, “COMPOUNDS FOR THE DEGRADATION OF MUTANT BRAF” (C4 THERAPEUTICS, INC., priority 2023, published 2026):
Read-outs that look alike come from different tables or passages of the source.

Experiments:
[1] = system: A375-NRAS^Q61K cells; test: CTGlo Cell Viability Assay, A375-NRAS^Q61K (A375.11) cells, 96 hours; type: cell-based, human; settings: A375.11 (A375-NRAS^Q61K) cells; for Emax / CTGlo A375.11 96 hours Emax: lowest % viability achieved
Procedure, shortened: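 Viability as CellTiter-Glo ATP luminescence after 96 h compound exposure at 37 °C; A375.11 (BRAF V600E/NRAS Q61K) cells at 250/well, top final concentration 10 μM in half-log steps. Signal was background-corrected and set relative to DMSO controls. A 4-parameter logistic fit gave GI50 (50% crossing) and Emax.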

[2] = target: T1, BRAF V600E (Homo sapiens, UniProt P15056+Q96SW2, V600E); test: BRAF V600E HiBiT Degradation Assay; type: cell-based
T1 construct: knock-in of the HiBiT tag to the endogenous BRAF V600E locus; host or cells: A375.10 (A375 clonal line, CRISPR HiBiT knock-in at the endogenous BRAF V600E locus)
Procedure, shortened: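 Endogenous HiBiT knock-in on BRAF V600E in A375 cells (clone A375.10); 11-point half-log series, top 10 μM, 2, 6 or 24 h at 37° C. Lytic HiBiT luminescence, background-subtracted, normalized to DMSO; 4-parameter fit gives DC50, Emax (residual protein) and IP (inflection point).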

[3] = A375.10 cells, BRAF V600E, 2 hours, inflection point, read-out: HiBiT-Degradation A375.10 BRAF 2 hours IP
[4] = A375.10 cells, BRAF V600E, 2 hours, read-out: HiBiT-Degradation A375.10 BRAF 2 hours DC50
[5] = A375.10 cells, BRAF V600E, 2 hours, residual protein remaining, read-out: HiBiT-Degradation A375.10 BRAF 2 hours Emax
[6] = read-out: HiBiT-Degradation A375.10 BRAF 2 hours Emax, A375.10 cells, BRAF V600E, 2 hours, residual protein remaining
[7] = A375.10 cells, BRAF V600E, 2 hours, residual protein remaining

T1 sequence (P15056 whole entry V600E): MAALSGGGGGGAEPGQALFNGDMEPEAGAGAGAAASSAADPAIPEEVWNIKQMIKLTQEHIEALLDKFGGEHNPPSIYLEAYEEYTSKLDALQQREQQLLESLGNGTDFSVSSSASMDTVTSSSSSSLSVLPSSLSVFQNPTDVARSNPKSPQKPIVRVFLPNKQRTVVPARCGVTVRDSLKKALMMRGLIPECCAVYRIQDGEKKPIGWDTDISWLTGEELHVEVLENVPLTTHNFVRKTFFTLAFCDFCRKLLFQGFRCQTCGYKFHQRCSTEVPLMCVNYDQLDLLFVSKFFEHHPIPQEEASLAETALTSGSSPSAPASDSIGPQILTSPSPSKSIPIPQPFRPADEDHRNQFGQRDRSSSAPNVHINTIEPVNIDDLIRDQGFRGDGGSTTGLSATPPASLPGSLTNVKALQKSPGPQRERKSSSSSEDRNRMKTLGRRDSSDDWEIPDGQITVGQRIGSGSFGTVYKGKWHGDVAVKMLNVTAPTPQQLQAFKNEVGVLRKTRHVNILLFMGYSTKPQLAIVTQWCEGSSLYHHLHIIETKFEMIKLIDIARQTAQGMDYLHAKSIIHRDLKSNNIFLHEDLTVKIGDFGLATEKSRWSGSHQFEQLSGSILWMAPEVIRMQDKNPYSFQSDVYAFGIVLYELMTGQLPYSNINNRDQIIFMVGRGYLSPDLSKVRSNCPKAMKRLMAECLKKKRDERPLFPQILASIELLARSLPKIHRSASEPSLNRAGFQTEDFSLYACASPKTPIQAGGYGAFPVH
T1 sequence (Q96SW2 whole entry): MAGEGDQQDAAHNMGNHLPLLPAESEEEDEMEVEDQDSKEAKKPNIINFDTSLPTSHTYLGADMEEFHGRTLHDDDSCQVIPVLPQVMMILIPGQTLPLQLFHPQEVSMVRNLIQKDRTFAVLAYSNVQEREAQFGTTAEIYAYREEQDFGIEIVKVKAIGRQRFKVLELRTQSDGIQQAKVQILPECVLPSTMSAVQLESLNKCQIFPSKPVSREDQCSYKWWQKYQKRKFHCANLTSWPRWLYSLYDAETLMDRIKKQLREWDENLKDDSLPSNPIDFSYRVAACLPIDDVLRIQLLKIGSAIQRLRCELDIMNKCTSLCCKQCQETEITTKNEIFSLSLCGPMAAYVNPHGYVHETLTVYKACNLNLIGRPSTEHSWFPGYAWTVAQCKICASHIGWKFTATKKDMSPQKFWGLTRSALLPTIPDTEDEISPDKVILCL
T1 sequence (Q16531 whole entry partner): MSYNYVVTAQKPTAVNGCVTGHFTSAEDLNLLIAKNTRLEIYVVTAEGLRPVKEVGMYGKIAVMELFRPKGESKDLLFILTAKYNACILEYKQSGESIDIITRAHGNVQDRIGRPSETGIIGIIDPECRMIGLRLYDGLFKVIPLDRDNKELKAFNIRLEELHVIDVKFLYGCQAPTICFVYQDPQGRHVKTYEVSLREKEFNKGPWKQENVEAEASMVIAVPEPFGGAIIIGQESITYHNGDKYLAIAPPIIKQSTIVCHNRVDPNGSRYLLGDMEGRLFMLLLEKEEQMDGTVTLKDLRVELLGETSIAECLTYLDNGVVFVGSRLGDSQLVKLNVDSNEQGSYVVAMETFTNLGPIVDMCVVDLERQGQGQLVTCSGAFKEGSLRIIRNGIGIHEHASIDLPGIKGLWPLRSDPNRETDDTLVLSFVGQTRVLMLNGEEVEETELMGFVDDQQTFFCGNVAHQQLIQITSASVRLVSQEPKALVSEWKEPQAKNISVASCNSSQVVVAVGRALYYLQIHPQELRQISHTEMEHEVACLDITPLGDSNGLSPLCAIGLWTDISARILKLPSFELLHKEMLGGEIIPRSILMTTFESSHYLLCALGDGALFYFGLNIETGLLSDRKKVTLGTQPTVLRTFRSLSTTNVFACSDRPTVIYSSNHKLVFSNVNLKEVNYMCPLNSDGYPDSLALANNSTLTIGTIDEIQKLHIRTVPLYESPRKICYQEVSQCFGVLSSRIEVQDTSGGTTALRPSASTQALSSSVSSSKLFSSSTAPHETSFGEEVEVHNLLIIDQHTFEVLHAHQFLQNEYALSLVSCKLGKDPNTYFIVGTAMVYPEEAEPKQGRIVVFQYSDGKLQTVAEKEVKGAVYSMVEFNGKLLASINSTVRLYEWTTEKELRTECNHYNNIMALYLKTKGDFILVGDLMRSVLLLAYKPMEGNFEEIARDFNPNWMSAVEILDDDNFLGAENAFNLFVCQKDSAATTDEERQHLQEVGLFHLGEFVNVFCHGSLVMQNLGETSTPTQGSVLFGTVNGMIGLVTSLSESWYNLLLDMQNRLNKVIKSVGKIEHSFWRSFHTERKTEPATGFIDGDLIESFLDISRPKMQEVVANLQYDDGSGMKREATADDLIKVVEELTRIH

| SMILES | GI50 ([1]; Homo sapiens, 96 h) | DC50 [2, 3] | DC50 [2, 4] | Emax [2, 5] | Emax [2, 6] | GI50 [1] | HiBiT-Degradation A375.10 BRAF 2 hours Emax [2, 7] | HiBiT-Degradation A375.10 BRAF 2 hours Emax [2] | Emax ([1]; Homo sapiens, 96 h) | CTGlo A375.11 96 hours Emax [1] |
| --- | --- | --- | --- | --- | --- | --- | --- | --- | --- | --- |
| CCN(C)S(=O)(=O)Nc1ccc(F)c(Oc2ccc3ncc(CC4CCN(C5CCC(c6cc7c(cc6F)c(N6CCC(=O)NC6=O)nn7C)CC5)CC4)nc3c2)c1C#N (single isomer, unassigned) [Compound 149, 7-[2-cyano-3-[[ethyl(methyl)sulfamoyl]amino]-6-fluoro-phenoxy]-2-[[1-[4-[3-(2,4-dioxohexahydropyrimidin-1-yl)-5-fluoro-1-methyl-indazol-6-yl]cyclohexyl]-4-piperidyl]methyl]quinoxaline] | > 10 µM | < 1 µM | < 1 µM | < 50% | – | – | – | – | 50 to 90% | – |
| CCN(C)S(=O)(=O)Nc1ccc(F)c(Oc2ccc3ncn(CCC4CCN(C5CCC(c6ccc(NC7CCC(=O)NC7=O)cc6F)CC5)CC4)c(=O)c3c2)c1C#N (single isomer, unassigned) [Compound 153, 6-[2-cyano-3-[[ethyl(methyl)sulfamoyl]amino]-6-fluoro-phenoxy]-3-[2-[1-[4-[4-[(2,6-dioxo-3-piperidyl)amino]-2-fluoro-phenyl]cyclohexyl]-4-piperidyl]ethyl]-4-oxo-quinazoline] | > 10 µM | < 1 µM | 1 to 10 µM | 50 to 90% | – | – | – | – | 50 to 90% | – |
| CCN(C)S(=O)(=O)Nc1ccc(F)c(Oc2ccc3ncn([C@H]4COC5(CCC(N6C7COCC6CC(c6cc8c(cc6F)c(N6CCC(=O)NC6=O)nn8C)C7)CC5)C4)c(=O)c3c2)c1C#N (single isomer, unassigned) [Compound 155] | > 10 µM | < 1 µM | < 1 µM | 50 to 90% | – | – | – | – | 50 to 90% | – |
| CCN(C)S(=O)(=O)Nc1ccc(F)c(Oc2ccc3ncc([C@@H]4COC5(CCN(C6CCC(c7cc8c(cc7F)c(N7CCC(=O)NC7=O)nn8C)CC6F)CC5)C4)nc3c2)c1C#N (single isomer, unassigned) [Compound 163] | 1 to 10 µM | < 1 µM | < 1 µM | – | < 50% | – | – | – | 50 to 90% | – |
| CCN(C)S(=O)(=O)Nc1ccc(F)c(Oc2ccc3ncn(C4CC5(CCN(C6CCC(c7ccc(NC8CCC(=O)NC8=O)cc7F)CC6)CC5)C4)c(=O)c3c2)c1F (single isomer, unassigned) [Compound 166, 3-[7-[4-[4-[(2,6-dioxo-3-piperidyl)amino]-2-fluoro-phenyl]cyclohexyl]-7-azaspiro[3.5]nonan-2-yl]-6-[3-[[ethyl(methyl)sulfamoyl]amino]-2,6-difluoro-phenoxy]-4-oxo-quinazoline] | 1 to 10 µM | < 1 µM | > 10 µM | 50 to 90% | – | – | – | – | – | * (>=90%) |
| CCN(C)S(=O)(=O)Nc1ccc(F)c(Oc2ccc3ncn(C4CC5(CCN(C6CCC(c7ccc(NC8CCC(=O)NC8=O)cc7F)CC6)CC5)C4)c(=O)c3c2)c1F (single isomer, unassigned) [Compound 167, 3-[7-[4-[4-[(2,6-dioxo-3-piperidyl)amino]-2-fluoro-phenyl]cyclohexyl]-7-azaspiro[3.5]nonan-2-yl]-6-[3-[[ethyl(methyl)sulfamoyl]amino]-2,6-difluoro-phenoxy]-4-oxo-quinazoline] | – | < 1 µM | > 10 µM | – | – | 1 to 10 µM | ** (<90% and >50%) | – | – | ** (<90% and >50%) |
| CN(CCO)S(=O)(=O)Nc1ccc(F)c(Oc2ccc3ncc([C@H]4COC5(CCN(C6CCC(c7cc8c(cc7F)c(N7CCC(=O)NC7=O)nn8C)CC6F)CC5)C4)nc3c2)c1C#N (single isomer, unassigned) [Compound 170] | 1 to 10 µM | < 1 µM | > 10 µM | 50 to 90% | – | – | – | – | 50 to 90% | – |
| CN(CCO)S(=O)(=O)Nc1ccc(F)c(Oc2ccc3ncc([C@@H]4COC5(CCN(C6CCC(c7cc8c(cc7F)c(N7CCC(=O)NC7=O)nn8C)CC6F)CC5)C4)nc3c2)c1C#N (single isomer, unassigned) [Compound 172] | 1 to 10 µM | < 1 µM | > 10 µM | 50 to 90% | – | – | – | – | 50 to 90% | – |
| CN(CCO)S(=O)(=O)Nc1ccc(F)c(Oc2ccc3ncc([C@@H]4COC5(CCN(C6CCC(c7cc8c(cc7F)c(N7CCC(=O)NC7=O)nn8C)CC6)CC5)C4)nc3c2)c1C#N (single isomer, unassigned) [Compound 174] | < 1 µM | < 1 µM | < 1 µM | < 50% | – | – | – | – | 50 to 90% | – |

Continued, in another order:

| GI50 ([1]; Homo sapiens, 96 h) | DC50 [2, 3] | DC50 [2, 4] | Emax [2, 5] | Emax [2, 6] | GI50 [1] | HiBiT-Degradation A375.10 BRAF 2 hours Emax [2, 7] | HiBiT-Degradation A375.10 BRAF 2 hours Emax [2] | SMILES | Emax ([1]; Homo sapiens, 96 h) | CTGlo A375.11 96 hours Emax [1] |
| --- | --- | --- | --- | --- | --- | --- | --- | --- | --- | --- |
| < 1 µM | < 1 µM | < 1 µM | < 50% | – | – | – | – | CN(CCO)S(=O)(=O)Nc1ccc(F)c(Oc2ccc3ncc([C@H]4COC5(CCN(C6CCC(c7cc8c(cc7F)c(N7CCC(=O)NC7=O)nn8C)CC6)CC5)C4)nc3c2)c1C#N (single isomer, unassigned) [Compound 176] | 50 to 90% | – |
| – | < 1 µM | < 1 µM | – | – | 1 to 10 µM | – | ** (<90% and >50%) | CCN(C)S(=O)(=O)Nc1ccc(F)c(Oc2ccc3ncn(C4CC5(CCN(C6CCC(c7cc8c(cc7F)c(N7CCC(=O)NC7=O)nn8C)CC6)CC5)C4)c(=O)c3c2)c1F (single isomer, unassigned) [Compound 179, 3-[7-[4-[3-(2,4-dioxohexahydropyrimidin-1-yl)-5-fluoro-1-methyl-indazol-6-yl]cyclohexyl]-7-azaspiro[3.5]nonan-2-yl]-6-[3-[[ethyl(methyl)sulfamoyl]amino]-2,6-difluoro-phenoxy]-4-oxo-quinazoline] | – | ** (<90% and >50%) |
| – | < 1 µM | < 1 µM | – | – | < 1 µM | – | *** (<=50%) | CCN(C)S(=O)(=O)Nc1ccc(F)c(Oc2ccc3ncc(C4CC5(CCN(C6CCC(c7cc8c(cc7F)c(N7CCC(=O)NC7=O)nn8C)CC6)CC5)C4)nc3c2)c1C#N (single isomer, unassigned) [Compound 181, 7-[2-cyano-3-[[ethyl(methyl)sulfamoyl]amino]-6-fluoro-phenoxy]-2-[7-[4-[3-(2,4-dioxohexahydropyrimidin-1-yl)-5-fluoro-1-methyl-indazol-6-yl]cyclohexyl]-7-azaspiro[3.5]nonan-2-yl]quinoxaline] | – | *** (<=50%) |
| – | < 1 µM | < 1 µM | – | – | 1 to 10 µM | *** (<=50%) | – | CCN(C)S(=O)(=O)Nc1ccc(F)c(C(=O)c2ccc3ncn(C4CC5(CCN(C6CCC(c7cc8c(cc7F)c(N7CCC(=O)NC7=O)nn8C)CC6)CC5)C4)c(=O)c3c2)c1F (single isomer, unassigned) [Compound 183, 3-[7-[4-[3-(2,4-dioxohexahydropyrimidin-1-yl)-5-fluoro-1-methyl-indazol-6-yl]cyclohexyl]-7-azaspiro[3.5]nonan-2-yl]-6-[3-[[ethyl(methyl)sulfamoyl]amino]-2,6-difluoro-benzoyl]-4-oxo-quinazoline] | – | ** (<90% and >50%) |
| – | < 1 µM | > 10 µM | – | – | > 10 µM | ** (<90% and >50%) | – | CCN(C)S(=O)(=O)Nc1ccc(F)c(Oc2ccc3ncn(C4CC5(CCN(C6CCC(c7cc8c(cc7F)c(N7CCC(=O)NC7=O)nn8C)CC6F)CC5)C4)c(=O)c3c2)c1F (single isomer, unassigned) [Compound 185] | – | ** (<90% and >50%) |
| 1 to 10 µM | < 1 µM | < 1 µM | < 50% | – | – | – | – | CCN(C)S(=O)(=O)Nc1ccc(F)c(Oc2ccc3ncn([C@H]4COC5(CCC(N6CCC(c7ccc(NC8CCC(=O)NC8=O)cc7F)C(F)(F)C6)CC5)C4)c(=O)c3c2)c1C#N (single isomer, unassigned) [Compound 190] | < 50% | – |
| – | < 1 µM | < 1 µM | – | < 50% | < 1 µM | – | – | CCN(C)S(=O)(=O)Nc1ccc(F)c(Oc2ccc3ncn([C@H]4COC5(CCC(N6CC7(CN(c8ccc(NC9CCC(=O)NC9=O)cc8F)C7)C6)CC5)C4)c(=O)c3c2)c1C#N (single isomer, unassigned) [Compound 191] | < 50% | – |
| – | < 1 µM | < 1 µM | – | – | > 10 µM | – | ** (<90% and >50%) | CCN(C)S(=O)(=O)Nc1ccc(F)c(Oc2ccc3ncn([C@H]4COC5(CCC(N6CC7(CN(c8ccc(NC9CCC(=O)NC9=O)cc8F)C7)C6)CC5)C4)c(=O)c3c2)c1C#N (single isomer, unassigned) [Compound 192] | – | *** (<=50%) |
